ChEMBL document CHEMBL1201862, “PubChem BioAssay data set” (2004)
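Briefly, cells in 96-well plates were exposed to five compound concentrations for 48 h, and endpoints were estimated by linear interpolation. Abbreviation: GI50, concentration required for 50% inhibition of growth.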 Active and inactive are the calls of the source. Rule as the data show it: active = GI50 up to about 1.1 µM and inactive = higher.

Key:
Experiment in all cases: inhibition of tumour cell growth, NCI panel, 48 h
HOP-62 = system: HOP-62
OVCAR-3 = system: OVCAR-3
RXF 393 = system: RXF 393
CAKI-1 = system: CAKI-1
UACC-62 = system: UACC-62
SK-MEL-28 = system: SK-MEL-28
CCRF-CEM = system: CCRF-CEM
Malme-3M = system: Malme-3M
LOX IMVI = system: LOX IMVI
MDA-MB-435 = system: MDA-MB-435
KM12 = system: KM12
MDA-N = system: MDA-N
SF-268 = system: SF-268
SNB-19 = system: SNB-19
HCT-116 = system: HCT-116
BT-549 = system: BT-549
SR = system: SR
OVCAR-5 = system: OVCAR-5
EKVX = system: EKVX

| SMILES | GI50 (HOP-62) | GI50 (OVCAR-3) | GI50 (RXF 393) | GI50 (CAKI-1) | GI50 (UACC-62) | GI50 (SK-MEL-28) | GI50 (CCRF-CEM) | GI50 (Malme-3M) | GI50 (LOX IMVI) | GI50 (MDA-MB-435) | GI50 (KM12) | GI50 (MDA-N) | GI50 (SF-268) | GI50 (SNB-19) | GI50 (HCT-116) | GI50 (BT-549) | GI50 (SR) | GI50 (OVCAR-5) | GI50 (EKVX) |
| --- | --- | --- | --- | --- | --- | --- | --- | --- | --- | --- | --- | --- | --- | --- | --- | --- | --- | --- | --- |
| N#CC1=C(S)N(C2OC(CO)C(O)C(O)C2O)C(c2ccccc2)=CC1c1ccccc1 (stereo not drawn) | > 100 µM (inactive) | 28.3 µM (inactive) | 25.2 µM (inactive) | > 100 µM (inactive) | 21.7 µM (inactive) | 45 µM (inactive) | 37.2 µM (inactive) | 52.1 µM (inactive) | 28.1 µM (inactive) | 39.9 µM (inactive) | 66.1 µM (inactive) | 37.2 µM (inactive) | 56.5 µM (inactive) | 64.6 µM (inactive) | 35.6 µM (inactive) | 55.2 µM (inactive) | 35 µM (inactive) | > 100 µM (inactive) | – |
| COc1cc(/C=C2\N=C(C)N(n3c(-c4ccccc4)nc4ccccc4c3=O)C2=O)cc(OC)c1OC | > 100 µM (inactive) | – | – | > 100 µM (inactive) | > 100 µM (inactive) | > 100 µM (inactive) | > 100 µM (inactive) | > 100 µM (inactive) | > 100 µM (inactive) | > 100 µM (inactive) | > 100 µM (inactive) | > 100 µM (inactive) | > 100 µM (inactive) | > 100 µM (inactive) | > 100 µM (inactive) | > 100 µM (inactive) | > 100 µM (inactive) | – | > 100 µM (inactive) |
| Cc1csc2n(C)c(=O)c3ccccc3[n+]12 | > 100 µM (inactive) | > 100 µM (inactive) | > 100 µM (inactive) | > 100 µM (inactive) | > 100 µM (inactive) | > 100 µM (inactive) | > 100 µM (inactive) | – | > 100 µM (inactive) | > 100 µM (inactive) | > 100 µM (inactive) | > 100 µM (inactive) | > 100 µM (inactive) | > 100 µM (inactive) | > 100 µM (inactive) | 79.4 µM (inactive) | > 100 µM (inactive) | > 100 µM (inactive) | > 100 µM (inactive) |
| COc1c2cc(C(C)(C)C)cc1Cc1cccc(c1OCc1cccc([N+](=O)[O-])c1)Cc1cc(C(C)(C)C)cc(c1OC)Cc1cccc(c1OCc1cccc([N+](=O)[O-])c1)Cc1cc(C(C)(C)C)cc(c1OC)Cc1cccc(c1OCc1cccc([N+](=O)[O-])c1)C2 | > 50 µM (inactive) | > 50 µM (inactive) | > 50 µM (inactive) | > 50 µM (inactive) | > 50 µM (inactive) | > 50 µM (inactive) | > 5 µM (inactive) | > 50 µM (inactive) | – | > 50 µM (inactive) | > 50 µM (inactive) | > 50 µM (inactive) | > 50 µM (inactive) | > 50 µM (inactive) | > 50 µM (inactive) | 0.005 µM (active) | > 50 µM (inactive) | > 50 µM (inactive) | > 50 µM (inactive) |
| O=c1oc2c(Cl)cc(Cl)cc2cc1C1=CSC2=NCCN12 | 38.8 µM (inactive) | 26.7 µM (inactive) | 34.2 µM (inactive) | 52.2 µM (inactive) | 51.9 µM (inactive) | 47.1 µM (inactive) | 31.3 µM (inactive) | – | 59.8 µM (inactive) | 32 µM (inactive) | 57.8 µM (inactive) | 36.2 µM (inactive) | – | 44.8 µM (inactive) | 31 µM (inactive) | 26 µM (inactive) | 40.6 µM (inactive) | > 100 µM (inactive) | 41.9 µM (inactive) |
| COc1ccc(CSc2ccccc2Cn2cccc2)cc1OC | > 100 µM (inactive) | 16 µM (inactive) | – | 93.1 µM (inactive) | 71.6 µM (inactive) | > 100 µM (inactive) | 50.5 µM (inactive) | 28.3 µM (inactive) | 73.5 µM (inactive) | > 100 µM (inactive) | 28.3 µM (inactive) | > 100 µM (inactive) | > 100 µM (inactive) | > 100 µM (inactive) | 89.1 µM (inactive) | 46 µM (inactive) | 50.5 µM (inactive) | > 100 µM (inactive) | 82.8 µM (inactive) |
| CCOc1cc(/C=N/c2ccc(Oc3ccc(Cl)cc3)c(Cl)c2)ccc1O | 23.1 µM (inactive) | 29.6 µM (inactive) | – | 19.8 µM (inactive) | 27.7 µM (inactive) | 25.2 µM (inactive) | 16.1 µM (inactive) | 23.3 µM (inactive) | 19.8 µM (inactive) | 35.3 µM (inactive) | 18.2 µM (inactive) | 25 µM (inactive) | 15.7 µM (inactive) | 25.2 µM (inactive) | 17.9 µM (inactive) | 17.8 µM (inactive) | 33.2 µM (inactive) | 28.1 µM (inactive) | 18.5 µM (inactive) |
| COc1cc(-c2c3c(cc4c2OCO4)[C@@H](Nc2ccc4c(c2)Cc2cc(N[C@@H]5c6cc7c(cc6C(c6cc(OC)c(O)c(OC)c6)[C@H]6C(=O)OC[C@H]56)OCO7)ccc2-4)[C@H]2COC(=O)[C@@H]2C3)cc(OC)c1O (stereo partly drawn) | 18.5 µM (inactive) | 55.5 µM (inactive) | – | 23.4 µM (inactive) | – | 15.5 µM (inactive) | > 100 µM (inactive) | 14.8 µM (inactive) | 51.3 µM (inactive) | 13.7 µM (inactive) | 26.5 µM (inactive) | 13.3 µM (inactive) | 51.2 µM (inactive) | 36 µM (inactive) | 21.8 µM (inactive) | 35.1 µM (inactive) | 11.6 µM (inactive) | 27.8 µM (inactive) | 74.6 µM (inactive) |
| CN(C)c1ccc(-c2nc(-c3cc4c(ccc5ccccc54)oc3=O)cs2)cc1 | > 100 µM (inactive) | – | > 100 µM (inactive) | > 100 µM (inactive) | > 100 µM (inactive) | > 100 µM (inactive) | > 100 µM (inactive) | > 100 µM (inactive) | > 100 µM (inactive) | > 100 µM (inactive) | > 100 µM (inactive) | > 100 µM (inactive) | > 100 µM (inactive) | > 100 µM (inactive) | > 100 µM (inactive) | > 100 µM (inactive) | > 100 µM (inactive) | > 100 µM (inactive) | > 100 µM (inactive) |
| COc1ccc(-n2c(SC(CN3CCOCC3)CN3CCCC3=O)nc3ccccc3c2=O)cc1 (stereo not drawn) | – | > 100 µM (inactive) | > 100 µM (inactive) | 43.7 µM (inactive) | > 100 µM (inactive) | 82.6 µM (inactive) | 67.5 µM (inactive) | 91.2 µM (inactive) | – | > 100 µM (inactive) | > 100 µM (inactive) | > 100 µM (inactive) | > 100 µM (inactive) | > 100 µM (inactive) | > 100 µM (inactive) | > 100 µM (inactive) | > 100 µM (inactive) | > 100 µM (inactive) | > 100 µM (inactive) |
| COc1cc2c(c(O)c1OC)C(=O)C1CCC(=O)N1C2c1cccc2ccccc12 (stereo not drawn) | 54.8 µM (inactive) | 30.6 µM (inactive) | 21.4 µM (inactive) | 85.1 µM (inactive) | 58.5 µM (inactive) | 73.6 µM (inactive) | 18.5 µM (inactive) | 81.8 µM (inactive) | – | 44.5 µM (inactive) | 42.3 µM (inactive) | 40.8 µM (inactive) | 57.8 µM (inactive) | 41.9 µM (inactive) | 50.5 µM (inactive) | 45 µM (inactive) | 26.5 µM (inactive) | 94.4 µM (inactive) | 37.5 µM (inactive) |
